Reference: article PMC8079033, “Design, synthesis, anticancer evaluation, and molecular modelling studies of novel tolmetin derivatives as potential VEGFR-2 inhibitors and apoptosis inducers” (Journal of Enzyme Inhibition and Medicinal Chemistry, 2021)

Assays:
[1] = tested on: panel of 60 tumour cell lines; assay: NCI 60-cell line one-dose screen, summary over the panel; assay type: cell-based, human; settings: 10 µM
Experimental: Anticancer activity screening of the newly synthesised compounds was measured in vitro utilising 60 different human tumour cell lines provided by US National Cancer Institute according to previously reported standard procedure[41–43] as follows: Cells are inoculated into 96-well microtiter plates in 100 ml. After cell inoculation, the microtiter plates are incubated at 37 °C, 5% CO2, 95% air, and 100% relative humidity for 24 h prior to addition of experimental compounds. After 24 h, two plates of each cell line are fixed in situ with TCA, to represent a measurement of the cell population for each cell line at the time of compound addition (Tz). Experimental compounds are solubilised in dimethyl sulfoxide at 400-fold the desired final maximum test concentration and stored frozen prior to use. At the time of compound addition, an aliquot of frozen concentrate is thawed and diluted to twice the desired final maximum test concentration with a complete medium containing […] gentamicin. Aliquots of […] of the compounds dilutions are added to the appropriate microtiter wells already containing 100 ml of medium, resulting in the required final compound concentration. Following compound addition, the plates are incubated for an additional 48 h at 37 °C, 5% CO2, 95% air, and 100% relative humidity. […] The bound stain is subsequently solubilised with a 10 mM trizma base, and the absorbance is read on an automated plate reader at a wavelength of 515 nm. […] Using the absorbance measurements [time zero, (Tz), control growth, (C), and test growth in the presence of compound (Ti)], the percentage growth is calculated for each compound. […]
Fifteen newly synthesised compounds were tested for their in vitro antiproliferative activity by the National Cancer Institute (NCI), Maryland, USA[50], under the Developmental Therapeutic Program (DTP)[41]^,[43]^,[51]^,[52]. The tested compounds were evaluated at a concentration of 10 µM on a panel of 60 tumour cell lines representing leukaemia and non-small cell lung, colon, CNS, melanoma, ovarian, renal, prostate, and breast cancers. […]

BT-5 = assay: NCI 60-cell line one-dose antiproliferative screen (SRB); assay type: cell-based; settings: Homo sapiens, read-out: growth inhibition % (GI%)
Experimental: (§1) Anticancer activity screening of the newly synthesised compounds was measured in vitro utilising 60 different human tumour cell lines provided by US National Cancer Institute according to previously reported standard procedure[41–43] as follows: Cells are inoculated into 96-well microtiter plates in 100 ml. After cell inoculation, the microtiter plates are incubated at 37 °C, 5% CO2, 95% air, and 100% relative humidity for 24 h prior to addition of experimental compounds. After 24 h, two plates of each cell line are fixed in situ with TCA, to represent a measurement of the cell population for each cell line at the time of compound addition (Tz). Experimental compounds are solubilised in dimethyl sulfoxide at 400-fold the desired final maximum test concentration and stored frozen prior to use. At the time of compound addition, an aliquot of frozen concentrate is thawed and diluted to twice the desired final maximum test concentration with a complete medium containing […] gentamicin. Aliquots of […] of the compounds dilutions are added to the appropriate microtiter wells already containing 100 ml of medium, resulting in the required final compound concentration. Following compound addition, the plates are incubated for an additional 48 h at 37 °C, 5% CO2, 95% air, and 100% relative humidity. For adherent cells, the assay is terminated by the addition of cold trichloroacetic acid (TCA). Cells are fixed in situ by the gentle addition of 50 ml of cold 50% (w/v) TCA (final concentration, 10% TCA) and incubated for […] at 4 °C. The supernatant is discarded, and the plates are washed five times with tap water and air-dried. Sulforhodamine B (SRB) solution (100 ml) at 0.4% (w/v) in 1% acetic acid is added to each well, and plates are incubated for 10 min at room temperature. After staining, the unbound dye is removed by washing five times with 1% acetic acid and the plates are air-dried. The bound stain is subsequently solubilised with a 10 mM trizma base, and the absorbance is read on an automated plate reader at a wavelength of 515 nm. For suspension cells, the methodology is the same except that the assay is terminated by fixing settled cells at the bottom of the wells by gently adding 50 ml of 80% TCA (final concentration, 16% TCA). Using the absorbance measurements [time zero, (Tz), control growth, (C), and test growth in the presence of compound (Ti)], the percentage growth is calculated for each compound. The One-dose data are reported as a mean graph of the percent growth of treated cells. The reported number is growth relative to the no-compound control, and relative to the time zero number of cells. This allows the detection of both growth inhibition and lethality.
(§2) Fifteen newly synthesised compounds were tested for their in vitro antiproliferative activity by the National Cancer Institute (NCI), Maryland, USA[50], under the Developmental Therapeutic Program (DTP)[41]^,[43]^,[51]^,[52]. The tested compounds were evaluated at a concentration of 10 µM on a panel of 60 tumour cell lines representing leukaemia and non-small cell lung, colon, CNS, melanoma, ovarian, renal, prostate, and breast cancers. The antiproliferative activity was presented by the NCI as percent growth of the treated cells and is presented in Table 1 as growth inhibition percentage (GI%) achieved by the tested compounds.

UACC-62 = assay: as above; assay type: cell-based; settings: Homo sapiens, read-out: growth inhibition % (GI%)
Experimental: as §1, §2

TK-10 = assay: as above; assay type: cell-based; settings: Homo sapiens, read-out: growth inhibition % (GI%)
Experimental: as §1, §2

NCI-H23 = assay: as above; assay type: cell-based; settings: Homo sapiens, read-out: growth inhibition % (GI%)
Experimental: as §1, §2

M14 = assay: as above; assay type: cell-based; settings: Homo sapiens, read-out: growth inhibition % (GI%)
Experimental: as §1, §2

LOX IMVI = assay: as above; assay type: cell-based; settings: Homo sapiens, read-out: growth inhibition % (GI%)
Experimental: as §1, §2

U251 = assay: as above; assay type: cell-based; settings: Homo sapiens, U-251, read-out: growth inhibition % (GI%)
Experimental: as §1, §2

NCI-H522 = assay: as above; assay type: cell-based; settings: Homo sapiens, read-out: growth inhibition % (GI%)
Experimental: as §1, §2

MDA-MB-468 = assay: as above; assay type: cell-based; settings: Homo sapiens, read-out: growth inhibition % (GI%)
Experimental: as §1, §2

HOP-62 = assay: as above; assay type: cell-based; settings: Homo sapiens, read-out: growth inhibition % (GI%)
Experimental: as §1, §2

SNB-19 = assay: as above; assay type: cell-based; settings: Homo sapiens, read-out: growth inhibition % (GI%)
Experimental: as §1, §2

SW-620 = assay: as above; assay type: cell-based; settings: Homo sapiens, read-out: growth inhibition % (GI%)
Experimental: as §1, §2

K-562 = assay: as above; assay type: cell-based; settings: Homo sapiens, K562, read-out: growth inhibition % (GI%)
Experimental: as §1, §2

SNB-75 = assay: as above; assay type: cell-based; settings: Homo sapiens, read-out: growth inhibition % (GI%)
Experimental: as §1, §2

OVCAR-5 = assay: as above; assay type: cell-based; settings: Homo sapiens, read-out: growth inhibition % (GI%)
Experimental: as §1, §2

EKVX = assay: as above; assay type: cell-based; settings: Homo sapiens, read-out: growth inhibition % (GI%)
Experimental: as §1, §2

SN 12 C = assay: as above; assay type: cell-based; settings: Homo sapiens, SN12C, read-out: growth inhibition % (GI%)
Experimental: as §1, §2

MDA-MB-231/ATCC = assay: as above; assay type: cell-based; settings: Homo sapiens, read-out: growth inhibition % (GI%)
Experimental: as §1, §2

OVCAR-8 = assay: as above; assay type: cell-based; settings: Homo sapiens, read-out: growth inhibition % (GI%)
Experimental: as §1, §2

SK-MEL-5 = assay: as above; assay type: cell-based; settings: Homo sapiens, read-out: growth inhibition % (GI%)
Experimental: as §1, §2

SF-539 = assay: as above; assay type: cell-based; settings: Homo sapiens, read-out: growth inhibition % (GI%)
Experimental: as §1, §2

CAKI-1 = assay: as above; assay type: cell-based; settings: Homo sapiens, read-out: growth inhibition % (GI%)
Experimental: as §1, §2

UACC-257 = assay: as above; assay type: cell-based; settings: Homo sapiens, read-out: growth inhibition % (GI%)
Experimental: as §1, §2

HS 578 T = assay: as above; assay type: cell-based; settings: Homo sapiens, read-out: growth inhibition % (GI%)
Experimental: as §1, §2

HL-60 (TB) = assay: as above; assay type: cell-based; settings: Homo sapiens, read-out: growth inhibition % (GI%)
Experimental: as §1, §2

HCT-116 = assay: as above; assay type: cell-based; settings: Homo sapiens, read-out: growth inhibition % (GI%)
Experimental: as §1, §2

786-0 = assay: as above; assay type: cell-based; settings: Homo sapiens, read-out: growth inhibition % (GI%)
Experimental: as §1, §2

HCT-15 = assay: as above; assay type: cell-based; settings: Homo sapiens, read-out: growth inhibition % (GI%)
Experimental: as §1, §2

SF-268 = assay: as above; assay type: cell-based; settings: Homo sapiens, read-out: growth inhibition % (GI%)
Experimental: as §1, §2

T-47D = assay: as above; assay type: cell-based; settings: Homo sapiens, T47D, read-out: growth inhibition % (GI%)
Experimental: as §1, §2

OVCAR-4 = assay: as above; assay type: cell-based; settings: Homo sapiens, read-out: growth inhibition % (GI%)
Experimental: as §1, §2

A549/ATCC = assay: as above; assay type: cell-based; settings: Homo sapiens, read-out: growth inhibition % (GI%)
Experimental: as §1, §2

SF-295 = assay: as above; assay type: cell-based; settings: Homo sapiens, read-out: growth inhibition % (GI%)
Experimental: as §1, §2

MDA-MB-435 = assay: as above; assay type: cell-based; settings: Homo sapiens, read-out: growth inhibition % (GI%)
Experimental: as §1, §2

A498 = assay: as above; assay type: cell-based; settings: Homo sapiens, read-out: growth inhibition % (GI%)
Experimental: as §1, §2

MCF7 = assay: as above; assay type: cell-based; settings: Homo sapiens, read-out: growth inhibition % (GI%)
Experimental: as §1, §2

UO-31 = assay: as above; assay type: cell-based; settings: Homo sapiens, read-out: growth inhibition % (GI%)
Experimental: as §1, §2

ACHN = assay: as above; assay type: cell-based; settings: Homo sapiens, read-out: growth inhibition % (GI%)
Experimental: as §1, §2

NCI-H226 = assay: as above; assay type: cell-based; settings: Homo sapiens, read-out: growth inhibition % (GI%)
Experimental: as §1, §2

SR = assay: as above; assay type: cell-based; settings: Homo sapiens, read-out: growth inhibition % (GI%)
Experimental: as §1, §2

IGROV1 = assay: as above; assay type: cell-based; settings: Homo sapiens, IGROV-1, read-out: growth inhibition % (GI%)
Experimental: as §1, §2

Cc1ccc(C(=O)c2ccc(CC(=O)NN=Cc3ccc4c(c3)OCO4)n2C)cc1 [Compound 5d, N′-(Benzo[d][1,3]dioxol-5-ylmethylene)-2–(1-methyl-5–(4-methylbenzoyl)-1H-pyrrol-2-yl)acetohydrazide]
antiproliferative activity over the panel (in words) [1]: inactive against most investigated cell lines
inhibition at 10 µM (BT-5): < 10%
inhibition at 10 µM (UACC-62): < 10%
inhibition at 10 µM (TK-10): < 10%
inhibition at 10 µM (NCI-H23): < 10%
inhibition at 10 µM (M14): < 10%
inhibition at 10 µM (LOX IMVI): < 10%
inhibition at 10 µM (U251): < 10%
inhibition at 10 µM (NCI-H522): 12.4%
inhibition at 10 µM (MDA-MB-468): < 10%
inhibition at 10 µM (HOP-62): < 10%
inhibition at 10 µM (SNB-19): < 10%
inhibition at 10 µM (SW-620): < 10%
inhibition at 10 µM (K-562): < 10%
inhibition at 10 µM (SNB-75): < 10%
inhibition at 10 µM (OVCAR-5): < 10%
inhibition at 10 µM (EKVX): < 10%
inhibition at 10 µM (SN 12 C): < 10%
inhibition at 10 µM (MDA-MB-231/ATCC): < 10%
inhibition at 10 µM (OVCAR-8): < 10%
inhibition at 10 µM (SK-MEL-5): < 10%
inhibition at 10 µM (SF-539): < 10%
inhibition at 10 µM (CAKI-1): < 10%
inhibition at 10 µM (UACC-257): < 10%
inhibition at 10 µM (HS 578 T): < 10%
inhibition at 10 µM (HL-60 (TB)): < 10%
inhibition at 10 µM (HCT-116): < 10%
inhibition at 10 µM (786-0): < 10%
inhibition at 10 µM (HCT-15): < 10%
inhibition at 10 µM (SF-268): < 10%
inhibition at 10 µM (T-47D): 15.6%
inhibition at 10 µM (OVCAR-4): < 10%
inhibition at 10 µM (A549/ATCC): < 10%
inhibition at 10 µM (SF-295): < 10%
inhibition at 10 µM (MDA-MB-435): < 10%
inhibition at 10 µM (A498): 13.1%
inhibition at 10 µM (MCF7): < 10%
inhibition at 10 µM (UO-31): 22.2%
inhibition at 10 µM (ACHN): < 10%
inhibition at 10 µM (NCI-H226): < 10%
inhibition at 10 µM (SR): < 10%
inhibition at 10 µM (IGROV1): < 10%
